Assay results taken from patent US12151991B2, “Use of a substituted thiazolidine compound as nitrification inhibitor” (BASF SE, priority 2018, dated 2024).

System: nitrification
Test: Inhibition of nitrification in soil incubation test (ammonium and nitrate content after 14 days)
Conditions: 100 g soil, 10 mg ammonium sulfate-N, 20° C., 0 and 14 days; for NI* @ 1%: compound at 1% (of nitrogen N); for NI* @ 3%: compound at 3% (of nitrogen N); for NI* @ 0.3%: compound at 0.3% (of nitrogen N)
Protocol: The compounds of the invention have been tested as follows in terms of the inhibition of nitrification:
100 g soil is filled into 500 ml plastic bottles (e.g. soil sampled from the field) and is moistened to 50% water holding capacity. The soil is incubated at 20° C. for two weeks to activate the microbial biomass. 1 ml test solution, containing the compound in the appropriate concentration (usually 0.3 or 1% of nitrogen N), or DMSO and 10 mg nitrogen in the form of ammonium sulfate-N is added to the soil and everything mixed well. Bottles are capped but loosely to allow air exchange. The bottles are then incubated at 20° C. for 0 and 14 days.
For analysis, 300 ml of a 1% K2SO4-solution is added to the bottle containing the soil and shaken for 2 hours in a horizontal shaker at 150 rpm. Then the whole solution is filtered through a filter (Macherey-Nagel Filter MN 807%). Ammonium and nitrate content is then analyzed in the filtrate in an autoanalyzer at 550 nm (Merck, AA11).
The inhibition (NI @ a specified concentration) is calculated as follows: […]

Structure (SMILES)	NI* @ 1%	NI* @ 3%	NI* @ 0.3%
S=C1NCCS1 [Cmpd. 1, 1,3-Thiazolidine-2-thione]	47	83.5	–
COc1cccc(C(=O)N2CCSC2=S)c1 [Cmpd. 2, 3-(3-Methoxybenzoyl)-2-thiazolidinethione]	73.1	67.9	34.8
O=C(Cc1ccccc1)N1CCSC1=S [Cmpd. 3, 3-(Phenylacetyl)-2-thiazolidinethione]	55.3	71.1	26.6
CC(=O)N1CCSC1=S [Cmpd. 4, 3-Acetylthiazolidine-2-thione]	32.3	68.7	–
O=C(c1ccc(Cl)cc1)N1CCSC1=S [Cmpd. 5, 3-(4-Chlorobenzoyl)-2-thiazolidinethione]	30.7	67	–
CC1(C)CSC(=S)N1 [Cmpd. 6, 4,4-Dimethyl-2-thiazolidinethione]	–	57.5	–
COc1ccc(C(=O)N2CCSC2=S)cc1 [Cmpd. 7, 3-(4-Methoxybenzoyl)-2-thiazolidinethione]	27.5	57.4	19.8
COc1ccc(C(=O)N2CCSC2=S)cc1OC [Cmpd. 8, 3-(3,4-Dimethoxybenzoyl)-2-thiazolidinethione]	–	55	–
O=C(c1cccc(Br)c1)N1CCSC1=S [Cmpd. 9, 3-(3-Bromobenzoyl)-2-thiazolidinethione]	–	49	–
O=C(c1ccccc1)N1CCSC1=S [Cmpd. 10, 3-Benzoyl-2-thiazolidinethione]	–	48.4	–
CN1CCSC1=S [Cmpd. 11, 3-Methyl-2-thiazolidinethione]	–	39.9	–
Cc1c(C(=O)N2CCSC2=S)oc2ccccc12 [Cmpd. 12, 3-[(3-Methyl-2-benzofuranyl)carbonyl]-2-thiazolidinethione]	–	39	–
